System: NCI-H2228 cell line
Experiment: CellTiter-Glo cell proliferation inhibition on NCI-H2228 cell line
Assay type: cell-based
Details: Homo sapiens, NCI-H2228 cells, 5000 cells/well, 4 days drug treatment
Protocol: 3. Cell Proliferation Inhibitory Activities of the Compounds of the Present Invention on NCI-H2228 Cell Line
? experimental method ? CellTiter-Glo® Luminescent Cell Viability Assay kit from Promega company was used to detect cell proliferation inhibitory activities of the compounds on NCI-H2228 cell line.
? instrument ? Envision 2104 plate reader from PerKinElmer company; Vi-Cell XR cell counter from Beckman Counter company; MCO-18AIC CO2 incubator from SANYO company.
? experiment material ? CellTiter-Glo® Luminescent Cell Viability Assay Kit (Promega company, catalog No. G7573); NCI-H2228 cell line (ATCC, catalog No. CRL-5935); RPMI-1640 medium (HyClone company, catalog No. SH30809.01B); fetal bovine serum (FBS) (Gibco company, catalog No. 10099-141); trypsin (Trypsin) (Gibco company, catalog No. 25200-072); PBS (HyClone company, catalog No. SH30256.01B); 96 wells cell culture plate (Corning company, catalog No. 3610); DMSO (AMRESCO company, catalog No. 0231); 96 wells plates (for diluting compounds) (CITOTEST company, catalog No. Ref36020096D);
? experimental condition ? NCI-H2228 cells in exponential growth phase were collected and treated with trypsin (Trypsin), and viable cells were counted by Vi-Cell XR cell counter. Cell suspension was adjusted to 62500 cells/ml with culture medium (RPMI-1640+10% FBS). 80 μl cell suspension was added into each well of 96 wells cell culture plate so that the final cell number of NCI-H2228 cells was 5000 cells/well. The cells were cultivated in an incubator with an atmosphere of 37° C., 5% CO2 and 95% humidity for 2 hours and then each well was added with 20 μl compounds in RPMI-1640 medium solution (the final concentration of DMSO was 0.5%). 4 days after drug treatment, each well was added with 50 μl CellTiter-Glo solution which was previously thawed and equilibrated to room temperature, and mixed for 2 minutes with microplate shaker. After placing at room temperature for 10 minutes, luminescence value was measured by PerkinElmer Envision 2104 plate reader and the data was analyzed.
? tested samples ? Compounds of the examples.
? data analysis ? Luminescence value of DMSO solvent control (Vvehicle control, which is the mean luminescence value from DMSO solvent control group)
Tested luminescence value (Vsample, which is the luminescence value from given concentration of compounds group) Inhibition rate (%)=(1−Vsample/Vvehicle control)×100
? data processing ? IC50 of compounds was calculated by using XLfit program in Excel.

| IC50 (NCI-H2228, 96 h) | SMILES | IC50 (96 h) |
| --- | --- | --- |
| 207 nM | Cc1cc(Nc2ncc(Cl)c(Nc3cn(C)nc3S(=O)(=O)C(C)C)n2)c(OC(C)C)cc1C1CN(C(C)C)C1 [Final product 132] | – |
| 134 nM | Cc1cc(Nc2ncc(Cl)c(Nc3cn(C)nc3S(=O)(=O)C(C)C)n2)c(OC(C)C)cc1C1CN(CCO)C1 [Final product 134] | – |
| 112 nM | Cc1cc(Nc2ncc(Cl)c(Nc3cn(C)nc3S(=O)(=O)C(C)C)n2)c(OC(C)C)cc1C1CCN(CCO)CC1 [Final product 136] | – |
| 90 nM | Cc1cc(Nc2ncc(Cl)c(Nc3cn(C)nc3S(=O)(=O)C(C)C)n2)c(OC2CC2)cc1C1CCCN(CCO)C1 (stereo not drawn) [Final product 139] | – |
| 105 nM | Cc1cc(Nc2ncc(Cl)c(Nc3cn(C)nc3S(=O)(=O)CC(C)C)n2)c(OC2CC2)cc1C1CCCN(CCO)C1 (stereo not drawn) [Final product 140] | – |
| 147 nM | Cc1cc(Nc2ncc(Cl)c(Nc3cn(C)nc3S(=O)(=O)C(C)C)n2)c(OC(C)C)cc1C1CCCN(CCO)C1 (stereo not drawn) [Final product 141] | – |
| 140 nM | COCCN1CCC(c2cc(OC(C)C)c(Nc3ncc(Cl)c(Nc4cn(C)nc4S(=O)(=O)C(C)C)n3)cc2C)CC1 [Final product 142, 5-chloro-N^2-(2-isopropoxy-4-(1-(2-methoxyethyl)piperidin-4-yl)-5-methyl-phenyl)-N^4-(3-(isopropylsulfonyl)-1-methyl-1H-pyrazol-4)-pyrimidin-2,4-diamine] | – |
| 32 nM | CCOc1cc(C2CCN(CCOC)CC2)c(C)cc1Nc1ncc(Cl)c(Nc2cn(C)nc2S(=O)(=O)C(C)C)n1 [Final product 143, 5-chloro-N^2-(2-ethoxy-4-(1-(2-methoxyethyl)piperidin-4-yl)-5-methyl-phenyl)-N^4-(3-(isopropylsulfonyl)-1-methyl-1H-pyrazol-4)-pyrimidin-2,4-diamine] | – |
| 48 nM | COCCN1CCC(c2cc(OC3CCC3)c(Nc3ncc(Cl)c(Nc4cn(C)nc4S(=O)(=O)C(C)C)n3)cc2C)CC1 [Final product 144, 5-chloro-N^2-(2-cyclobutyloxy-4-(1-(2-methoxyethyl)piperidin-4-yl)-5-methyl-phenyl)-N^4-(3-(isopropylsulfonyl)-1-methyl-1H-pyrazol-4)-pyrimidin-2,4-diamine] | – |
| 54 nM | Cc1cc(Nc2ncc(Cl)c(Nc3cn(C)nc3S(=O)(=O)C(C)C)n2)c(OC2CC2)cc1C1CCN(CCF)CC1 [Final product 145, 5-chloro-N^2-[2-cyclopropoxy-4-(1-(2-fluoroethyl)piperidin-4-yl)-5-methylphenyl]-N^4-[1-methyl-3-(isopropylsulfonyl)-1H-pyrazol-4-yl]-pyrimidin-2,4-diamine] | – |
| 41 nM | Cc1cc(Nc2ncc(Cl)c(Nc3cn(C)nc3S(=O)(=O)C(C)C)n2)c(OC2CC2)cc1C1CCN(C(C)(C)CO)CC1 [Final product 147, 2-(4-(4-(5-chloro-4-(3-(isopropylsulfonyl)-1-methyl-1H-pyrazol-4-amino)pyrimidin-2-amino)-5-cyclopropoxy-2-methylphenyl)piperidin-1-yl)-2-methyl-1-propanol] | – |
| 44 nM | Cc1cc(Nc2ncc(Cl)c(Nc3cn(C)nc3S(=O)(=O)C(C)C)n2)c(OC2CC2)cc1C1CCCN(C(C)(C)CO)C1 (stereo not drawn) [Final product 148] | – |
| 57 nM | Cc1cc(Nc2ncc(Cl)c(Nc3cn(C)nc3S(=O)(=O)CC(C)C)n2)c(OC2CC2)cc1C1CCN(C(C)(C)CO)CC1 [Final product 149] | – |
| 43 nM | CCOc1cc(C2CCN(C(C)(C)CO)CC2)c(C)cc1Nc1ncc(Cl)c(Nc2cn(C)nc2S(=O)(=O)C(C)C)n1 [Final product 150] | – |
| 70 nM | CCOc1cc(C2CCCN(C(C)(C)CO)C2)c(C)cc1Nc1ncc(Cl)c(Nc2cn(C)nc2S(=O)(=O)C(C)C)n1 (stereo not drawn) [Final product 151] | – |
| 60 nM | Cc1cc(Nc2ncc(Cl)c(Nc3cn(C)nc3S(=O)(=O)C(C)C)n2)c(OC2CCC2)cc1C1CCN(C(C)(C)CO)CC1 [Final product 153] | – |
| 128 nM | Cc1cc(Nc2ncc(Cl)c(Nc3cn(C)nc3S(=O)(=O)C(C)C)n2)c(OC2CCC2)cc1C1CCCN(C(C)(C)CO)C1 (stereo not drawn) [Final product 154] | – |
| 75 nM | Cc1cc(Nc2ncc(Cl)c(Nc3cn(C)nc3S(=O)(=O)C(C)C)n2)c(OC2CC2)cc1C1CCN(CC(=O)N(C)C)CC1 [Final product 155, 2-(4-(4-(5-chloro-4-(3-(isopropoxysulfonyl)-1-methyl-1H-pyrazol-4-yl-amino)pyrimidin-2-yl-amine)-5-cyclopropoxy-2-methylphenyl)piperidin-1-yl)-N,N-dimethylacetamide] | – |
| – | Cc1cc(Nc2ncc(Cl)c(Nc3cn(C)nc3S(=O)(=O)C(C)C)n2)c(OC2CC2)cc1C1CCN(C2CCN(C)CC2)CC1 [Final product 158, 5-chloro-N^2-(2-cyclopropoxy-5-methyl-4-(1-(1-methyl-piperidin-4-yl)piperidin-4-yl)phenyl)-N^4-(3-(isopropylsulfonyl)-1-methyl-1H-pyrazol-4-yl)pyrimidin-2,4-diamine] | 170 nM |
| 256 nM | Cc1cc(Nc2ncc(Cl)c(Nc3cn(C)nc3S(=O)(=O)CC(C)C)n2)c(OC2CC2)cc1[C@H]1CC[C@@H](N(C)C)CC1 [Final product 175, 5-chloro-N^2-(2-cyclopropoxy4-(4-(dimethylamino)cyclohexyl)-5-methylphenyl)-N^4-(3-(isobutylsulfonyl)-1-methyl-1H-pyrazol-4-yl) pyrimidin-2,4-diamine] | – |
| 91 nM | Cc1cc(Nc2ncc(Cl)c(Nc3cn(C)nc3S(=O)(=O)CC(C)C)n2)c(OC2CC2)cc1[C@H]1CC[C@H](N(C)C)CC1 [Final product 176, 5-chloro-N^2-(2-cyclopropoxy4-(4-(dimethylamino)cyclohexyl)-5-methylphenyl)-N^4-(3-(isobutylsulfonyl)-1-methyl-1H-pyrazol-4-yl) pyrimidin-2,4-diamine] | – |
| 73 nM | CCN(CC)[C@H]1CC[C@@H](c2cc(OC3CC3)c(Nc3ncc(Cl)c(Nc4cn(C)nc4S(=O)(=O)CC(C)C)n3)cc2C)CC1 [Final product 177] | – |
| 137 nM | Cc1cc(Nc2ncc(Cl)c(Nc3cn(C)nc3S(=O)(=O)CC(C)C)n2)c(OC2CC2)cc1[C@H]1CC[C@@H](NC2CC2)CC1 [Final product 179] | – |
| 106 nM | Cc1cc(Nc2ncc(Cl)c(Nc3cn(C)nc3S(=O)(=O)CC(C)C)n2)c(OC2CC2)cc1[C@H]1CC[C@@H](NC(C)C)CC1 [Final product 181] | – |
| 172 nM | Cc1cc(Nc2ncc(Cl)c(Nc3cn(C)nc3S(=O)(=O)C(C)C)n2)c(OC(C)C)cc1C1CCC(N(C)C)CC1 (stereo not drawn) [Final product 183] | – |
| 188 nM | CCN(CC)[C@H]1CC[C@H](c2cc(OC(C)C)c(Nc3ncc(Cl)c(Nc4cn(C)nc4S(=O)(=O)C(C)C)n3)cc2C)CC1 [Final product 184] | – |
| 296 nM | Cc1cc(Nc2ncc(Cl)c(Nc3cn(C)nc3S(=O)(=O)C(C)C)n2)c(OC(C)C)cc1[C@H]1CC[C@@H](NC2CC2)CC1 [Final product 185] | – |
| 253 nM | Cc1cc(Nc2ncc(Cl)c(Nc3cn(C)nc3S(=O)(=O)C(C)C)n2)c(OC(C)C)cc1[C@H]1CC[C@H](NC2CC2)CC1 [Final product 186] | – |
| 111 nM | Cc1cc(Nc2ncc(Cl)c(Nc3cn(C)nc3S(=O)(=O)C(C)C)n2)c(OC(C)C)cc1[C@H]1CC[C@@H](NC(C)C)CC1 [Final product 187] | – |
| 116 nM | Cc1cc(Nc2ncc(Cl)c(Nc3cn(C)nc3S(=O)(=O)C(C)C)n2)c(OC2CC2)cc1[C@H]1CC[C@@H](N(C)C(C)C)CC1 [Final product 193] | – |

Source: patent US10023593B2, “ALK kinase inhibitor, and preparation method and uses thereof” (BEIJING PEARL BIOTECHNOLOGY LIMITED LIABILITY COMPANY, priority 2014, dated 2018)
